Values after ≈ are worked out from the molar mass of the structure shown. Where two headings read alike, the source gives them in different places. Blank lines part the entries; values can stand above or below the molecule they belong to.
Columns and labels:
[1] = Preliminary forced degradation study (acidic, basic, oxidative, photolytic stress; excipient compatibility); type: physicochemical
Protocol: Stability: Preliminary forced degradation study of the crystalline form of the free base of the compound of Formula I in acidic, basic, oxidative, and photolytic stress conditions was conducted to investigate the viability of the crystalline form in various stress conditions. Since the solubility of the compound of Formula I was low in the standard solvent ethanol, ethanol was replaced by N-methyl-2-pyrrolidone (NMP).
The crystalline form of the free base of the compound of Formula I was stable for up to 8 days in solid state at 80° C. and in solution at pH 3 to pH 7 at RT. […] The crystalline form was stable after exposure to light in solid state.

[2] = Preliminary solid state stability (UPLC analysis); type: physicochemical
Protocol: A defined amount of the crystalline form of the free base of the compound of Formula I (0.2-0.8 mg) was weighed into a 1.8 mL HPLC vial and stored open (75% RH) or closed (ambient) at the temperature and the time indicated. After incubation, compound was dissolved in 1-1.5 mL NMP to a final concentration of 0.2-0.5 mg/mL and submitted to UPLC analysis (254 nm).

[3] = Thermodynamic stability of crystalline form; type: physicochemical; settings: at least between 20° C. and 60° C.
[4] = Stability in suspension vehicle and parenteral formulation; type: physicochemical; settings: 0.5% HPC/1% Tween 80, up to 5 weeks at RT
Protocol: For parenteral administration, a 30% Kleptose formulation (1.5 mg/ml, physiologic osmolality, pH 6.2), with a stability of at least 4 weeks at 40° C. was developed.

[5] = Solubility of the crystalline form; type: physicochemical; settings: for solubility: thermodynamic from solid
Protocol: Solubility in simulated gastric fluid (SGF), fasted state simulated intestinal fluid (FaSSIF), and fed state simulated intestinal fluid (FeSSIF) was 0.019 mg/ml, 0.006 mg/mL, and 0.022 mg/mL, respectively. Solubility increased 50-100-fold in the presence of surfactants (e.g., Tween-80, sodium dodecyl sulfate, dioctyl sulfosuccinate, or Pluronic F68) and cyclodextrins; however it was still rather low.

SD rats [6] = assay: Oral glucose tolerance test, third study (sub-chronic, 8 days, alone or in combination); type: in vivo, rat
Protocol: The third study evaluated sub-chronic (8 days) effects of the compound of Formula I alone or in combination with Olanzapine. […] The insulin was measured at time 0 only.

SD rats [7] = assay: Oral glucose tolerance test, second study (acute treatment); type: in vivo, rat; settings: 10 mg/kg; for Glucose tolerance (oral glucose tolerance test): glucose 2 g/kg per os 1 hour post treatment
Protocol: The second study assessed the impact of acute treatment with the compound of Formula I. The study was conducted on 9-week male SD rats, which were fed with chow diet.

SD rats [8] = assay: Oral glucose tolerance test, first study (acute treatment); settings: 3 and 10 mg/kg
Protocol: The study was conducted on 10-week male SD rats fed with chow diet. The glucose challenge was performed 1 hour post last treatment. The glucose load was done per os per gavage (2 g/kg BW), and the formulation was made in saline. The blood glucose and plasma insulin were measured at 0 (before challenge), +15, +30, +60 and +120 minutes. Blood was sampled in EDTA coated tubes, and the blood samples were kept on ice until centrifuged at 4° C. ELISA for Insulin (Mercodia, Uppsala Sweden) and Fluorometric for measuring glucose (AccuCheck System) were used for the analysis. Data Analysis was done using the software JMP for Windows (Version 5.01, SAS institute Inc., SAS Campus Drive, Cary, NC 27513). Analysis of Variance ANOVA (alpha 0.05 and 0.01) followed by Dunnett's test (comparison vs. Control).

[9] = test system: adult male patients with COFD; assay: Study A: open-label Phase IIa 6-week study of safety and efficacy in COFD; type: in vivo, human; settings: 5 to 15 mg, once daily, oral; study design criterion
Protocol: Provided below is an open-label, Phase IIa, multi-center, 6-week prospective study to evaluate the safety and efficacy of the compound of Formula I at a daily dose range of 5 mg to 15 mg in adult male patients with COFD.

Excipient compatibility (CompaS assay) [1]: compatible with almost all excipients
Stability towards oxidation ([1]; 1 day): stable
Stability towards daylight ([1]; in solution): stable
Stability in the Suntest ([1]; in solution, time dependent): moderately stable to unstable
Stability in solution ([1]; pH 3 to pH 7 at RT): stable
Stability in solution at higher or lower pH ([1]; pH above 7 or below 3): degradation was observed
Stability towards oxidation ([1]; prolonged exposure): some sensitivity
Stability after exposure to light ([1]; solid state): stable
Stability in solid state ([1]; up to 8 days, 80° C.): stable
UPLC analysis (Area % main peak) ([2]; 4 w 60° C.): 100 Area %
UPLC analysis (Area % main peak) ([2]; 4 w, 4° C.): 100 Area %
UPLC analysis (Area % main peak) ([2]; 4 w, 40° C.): 100 Area %
UPLC analysis (Area % main peak) ([2]; 4 w, 40° C., 75% RH): 100 Area %
UPLC analysis (Area % main peak) ([2]; 4 w, RT): 100 Area %
Time stable in solid state ([2]; 40-60° C.): at least 4 weeks
UPLC analysis (Area % main peak) ([2]; 1 h, 80° C.): 100 Area %
UPLC analysis (Area % main peak) ([2]; 1 d, 80° C.): 100 Area %
UPLC analysis (Area % main peak) ([2]; 8 d, 80° C.): 100 Area %
Degradation products ([2]; solid state, various temperatures): < 0.5%
Thermodynamic stability [3]: thermodynamically stable
Stability in suspension vehicle [4]: stable
solubility ([5]; aqueous solutions, 22 °C, aqueous buffer, pH>3, read-out: Solubility in aqueous solutions): < 4 µg/mL
solubility ([5]; fasted state simulated intestinal fluid (FaSSIF), 22 °C, fassif, read-out: Solubility in fasted state simulated intestinal fluid (FaSSIF)): 6 µg/mL (≈ 13.9 µM)
solubility ([5]; fed state simulated intestinal fluid (FeSSIF), 22 °C, fessif, read-out: Solubility in fed state simulated intestinal fluid (FeSSIF)): 22 µg/mL (≈ 51 µM)
Solubility increase ([5]; in the presence of surfactants (e.g., Tween-80, sodium dodecyl sulfate, dioctyl sulfosuccinate, Pluronic F68) and cyclodextrins): 50-100 fold
solubility ([5]; organic solvents, organic solvent or mixture, ambient temperature (22° C.), read-out: Solubility in most of the tested organic solvents): < 50000 µg/mL
solubility ([5]; simulated gastric fluid (SGF), 22 °C, simulated gastric fluid, read-out: Solubility in simulated gastric fluid (SGF)): 19 µg/mL (≈ 44 µM)
Structure (SMILES): Cn1ncc(C(=O)N2CCOCC2)c1C(=O)Nc1ccn2nc(-c3ccccc3)nc2c1 [1-methyl-4-(morpholine-4-carbonyl)-N-(2-phenyl[1,2,4]triazolo[1,5-a]pyridin-7-yl)-1H-pyrazole-5-carboxamide]
Particle growth and hydrate formation in suspension vehicle [4]: only minor particle growth and no hydrate formation

Structure (SMILES): Cc1cc2c(s1)Nc1ccccc1N=C2N1CCN(C)CC1 [Olanzapine, 2-Methyl-4-(4-methyl-1-piperazinyl)-10H-thieno[2,3-b][1,5]benzodiazepine]
Glucose tolerance (oral glucose tolerance test) (SD rats [6]; acute treatment, 10 mg/kg, glucose 2 g/kg per os): glucose intolerance
Fasting blood glucose (SD rats [6]; acute treatment, 10 mg/kg, male SD rats): increase
Glucose tolerance (oral glucose tolerance test) (SD rats [7]): glucose intolerance
Fasting blood glucose (SD rats [7]; male SD rats): increase
Glucose tolerance (oral glucose tolerance test) (SD rats [8]; glucose 2 g/kg per os 1 hour post treatment): dose-dependent glucose intolerance
Fasting blood glucose (SD rats [8]; male SD rats): dose-dependent increase
Fasting insulin (SD rats [8]; male SD rats): dose-dependent increase

Structure (SMILES): Cn1ncc(C(=O)N2CCOCC2)c1C(=O)Nc1ccn2nc(-c3ccccc3)nc2c1 [compound of Formula I, 1-methyl-4-(morpholine-4-carbonyl)-N-(2-phenyl[1,2,4]triazolo[1,5-a]pyridin-7-yl)-1H-pyrazole-5-carboxamide]
Key secondary: Subject-rated Self Assessment of Stuttering [9]: Key secondary: Superior efficacy on the Subject-rated Self
Safety: effect on blood glucose and lipids [9]: No or minimal effect on blood glucose and lipids
Safety: patients with significant weight gain (greater than 7% versus baseline) [9]: Less than 5% of patients with significant weight gain (greater
Secondary: percent of patients with stuttering freedom [9]: Secondary: Superior percent of patients with stuttering
Fasting blood glucose (SD rats [6]; repeated treatment, 8 days, 0.3 mg/kg): no change
Glucose tolerance (oral glucose tolerance test) (SD rats [6]; repeated treatment, 8 days, 0.3 mg/kg, alone): slight glucose tolerance improvement
Glucose tolerance (oral glucose tolerance test) (SD rats [7]): did not induce any change

Source: patent publication US20230381193A1, “METHODS FOR THE TREATMENT OF CHILDHOOD-ONSET FLUENCY DISORDER” (Noema Pharma AG, priority 2021, published 2023)
